The source of these data is patent US20250164468A1, “Method for Cellular Lifespan Measurement” (AGENCY FOR SCIENCE, TECHNOLOGY AND RESEARCH, priority 2022, published 2025).

Holding throughout (assay type): cell-based, Saccharomyces cerevisiae
In experiment [1] the test system is prototrophic yeast strain (CEN.PK113-7D). The experiment is described as follows: Propidium iodide fluorescence-based chronological lifespan (CLS) method in yeast, incl. high-throughput screening. The note with it: for Yeast CLS increase / PI intensity: 100 μM tested; for Yeast CLS increase: Yes/No call; for PI intensity: chronological age point day 7 (72 h growth = day 1), lower PI = more survival. The protocol:
Chronological lifespan (CLS) experiments were conducted in 96-well plates with 200 μL yeast culture. The prototrophic wild-type yeast strain (CEN.PK113-7D) and snf1Δ deletion strains were grown in the SD medium in 96-well plates at 30° C. Saccharomyces cerevisiae BY4743 strain was grown in the SD medium supplemented with histidine (40 mg/L), leucine (160 mg/L), and uracil (40 mg/L) in 96-well plates at 30° C. For assays testing the effect of rapamycin, cellular inoculum was transferred into 96-well plates containing serially double-diluted concentrations (0 to 10 nM) of rapamycin. […] Likewise, cellular inoculum was transferred into the 96-well plates containing serially double-diluted concentrations (0-8 mM) of D-fructose, D-mannitol, D-maltose, and D-sorbitol. Cells were incubated at 30° C., and the growth was measured at different time points. […] Cell survival was quantified at various age time points by three different approaches: (i) propidium iodide fluorescence-based method, (ii) outgrowth in YPD liquid medium and (iii) spotting assay (FIG. 1).
40 μL yeast cells on different age time points were transferred into a 96-well plate different to the 96-well plate in which the CLS analysis was performed. Cells were washed and incubated in 100 μL 1×PBS with PI (5 μg/mL) for 15 minutes in the dark. Positive and negative sample control were included for quantitative analysis. Positive control (cells boiled at 100° C. for 15 min) was PI-stained and processed in the same 96-well plate. Samples without PI-stained cells served as the negative control. After incubation, cells were washed and resuspended in 100 μL PBS. The fluorescence reading of the samples (excitation at 535 nm, emission at 617 nm) and OD600 nm were measured by a microplate reader (BioTek, Winooski, Vermont, United States). The fluorescence intensity of each sample was normalized with OD600 nm. The normalized fluorescence intensity of each sample was subtracted from the background signal of the unstained negative sample. The obtained fluorescence intensity of the positive control sample (boiled dead cells) was considered 0% cell survival. […] Cell survival of different age time point samples were calculated by normalizing the fluorescence intensity with positive control sample (boiled cells).
The prototrophic yeast strain (CEN.PK113-7D) was grown in the synthetic defined medium with indicated concentrations of rapamycin in 96-well plates at 30° C. A total of 30 samples of individual rapamycin concentration was tested with DMSO control (0 nM rapamycin) for Z-factor analysis. […] The chronological lifespan of the aged cells was determined by the outgrowth method in YPD liquid medium. […] At chronological age point day 4, 3 μL culture were transferred to a second 96-well plate containing 200 μL YPD medium. […] The CLS of different concentrations of rapamycin incubated cells was determined using the propidium iodide fluorescence-based method (FIG. 2C). […] Z-factor of different concentrations of rapamycin was analyzed using the formula Z=1−[3×(standard deviation of control sample+standard deviation of rapamycin sample)/(mean of control sample−mean of rapamycin sample)].
High-throughput screening of various chemicals was tested using the same protocol for the propidium iodide fluorescence-based method as described above. The prototrophic yeast strain (CEN.PK113-7D) was grown in the synthetic defined medium with different chemical reagents with a single testing concentration (Table 1) in addition to eight replicates of DMSO and water controls in 96-well plates at 30° C.

For experiment [2] the test system is unchanged. The experiment is described as follows: Yeast outgrowth in YPD liquid medium (CLS of aged cells). The note with it: 100 μM tested; outgrowth OD600 nm in YPD after 24 h, age point day 14. The procedure:
This quantification was performed by using the formula,
The CLS of the aged cells was further determined by the yeast outgrowth in YPD liquid medium method as described above. […] At chronological age point day 14, 3-μL of culture were transferred to a second 96-well plate containing 200 μL YPD medium.

Experiment [3] has the same test system. The experiment is described as follows: Yeast cell growth (OD600 nm) with rapamycin in SD medium. The protocol: Chronological lifespan (CLS) experiments were conducted in 96-well plates with 200 μL yeast culture. The prototrophic wild-type yeast strain (CEN.PK113-7D) and snf1Δ deletion strains were grown in the SD medium in 96-well plates at 30° C. Saccharomyces cerevisiae BY4743 strain was grown in the SD medium supplemented with histidine (40 mg/L), leucine (160 mg/L), and uracil (40 mg/L) in 96-well plates at 30° C. For assays testing the effect of rapamycin, cellular inoculum was transferred into 96-well plates containing serially double-diluted concentrations (0 to 10 nM) of rapamycin. For calorie restriction assay, cellular inoculums were prepared in SD medium containing 2% w/v, 0.5% w/v, and 0.25% w/v glucose and transferred to 96-well plates. […] Cells were incubated at 30° C., and the growth was measured at different time points. […] Cell survival was quantified at various age time points by three different approaches: (i) propidium iodide fluorescence-based method, (ii) outgrowth in YPD liquid medium and (iii) spotting assay (FIG. 1).
The effect of rapamycin on the CLS of a yeast strain was studied to examine the validity of the inventive protocol. […] Cells were aged with different concentrations of rapamycin in the SD medium and their respective growth at different time points (24 hours, 48 hours and 72 hours) were measured. […]

For `OC[C@H]1O[C@H](CO)[C@@H](O)[C@@H]1O` [2,5-anhydromannitol, 2,5-anhydro-D-mannitol], in experiment [1] (screen, PI method), the “extension of CLS of yeasts” value is on record as “extend the CLS of yeasts”.

On to `O=C(O)[C@@H]1CCCN1` [I-pyrrolidine-2-carboxylic acid], for which, in experiment [1], the “Yeast CLS increase” value is on record as “No” and the PI intensity is listed as 80,551.7. In experiment [2], this molecule registered an Outgrowth of 0.1.

Consider `CO[C@H]1C[C@@H]2CC[C@@H](C)[C@@](O)(O2)C(=O)C(=O)N2CCCC[C@H]2C(=O)O[C@H]([C@H](C)C[C@@H]2CC[C@@H](O)[C@H](OC)C2)CC(=O)[C@H](C)/C=C(\C)[C@@H](O)[C@@H](OC)C(=O)[C@H](C)C[C@H](C)/C=C/C=C/C=C/1C` [Rapamycin], for which the “survival of aged cells” value is reported as “approximately 75%” in experiment [1] (5 nM and 10 nM, day 4 (without rapamycin approx. 50%)); “approximately 70%” in experiment [1] (day 7 (without rapamycin less than 20%)). For the same molecule, the “time to cell growth saturation” value in experiment [3] (5 nM or less rapamycin) was “approximately 24 hours”; in experiment [3] (10 nM rapamycin (slowed cell growth)), 48 h.

For `O=C(Oc1nc2[nH]c(=O)[nH]c(=O)c2[nH]1)c1cccnc1` [Xanthinol Nicotinate], the “Yeast CLS increase” value in experiment [1] is recorded as “No”.

Consider Aliskiren (hemiumarate), for which, in experiment [1], the PI intensity is 73,607.3.
